Assay results taken from the NIST ThermoML archive (doi:10.1016/j.fluid.2013.06.041).

Key:
[1] = 101.33 kPa, Liquid, Vibrating tube method
[2] = molar heat capacity at constant pressure; details: 101.33 kPa, Liquid, Small sample (50 mg) DSC
[3] = xn = mol fraction of the nth substance listed; details: 101 kPa, Liquid, Small sample (50 mg) DSC

OCCO [1,2-ethanediol]
Details	mass density, 283.15 K [kg/m3]	mass density, 293.15 K [kg/m3]	mass density, 303.15 K [kg/m3]	mass density, 313.15 K [kg/m3]	molar heat capacity at constant pressure, 283.15 K [J/K/mol]	molar heat capacity at constant pressure, 293.15 K [J/K/mol]	molar heat capacity at constant pressure, 298.15 K [J/K/mol]	molar heat capacity at constant pressure, 303.15 K [J/K/mol]	molar heat capacity at constant pressure, 313.15 K [J/K/mol]
[1]	1120.39	1113.34	1106.23	1099.07	–	–	–	–	–
[2]	–	–	–	–	145.38	148.53	150.22	151.96	155.49

OCCO [1,2-ethanediol] + O
excess molar heat capacity [J/K/mol], [3]
Details	283.15 K	293.15 K	298.15 K	303.15 K	313.15 K
x1 = 0.00991	0.43	0.3	0.26	0.26	0.37
x1 = 0.02619	0.87	0.79	0.76	0.75	0.74
x1 = 0.04637	1.03	1.25	1.33	1.39	1.5
x1 = 0.07516	1.32	1.72	1.85	1.96	2.17
x1 = 0.09514	–	–	1.99	2.2	2.5
x1 = 0.1016	1.26	–	–	–	–
x1 = 0.1245	1.16	1.91	2.17	2.38	2.76
x1 = 0.1491	0.94	1.76	2.08	2.35	2.82
x1 = 0.1731	0.76	1.68	2.01	2.29	–
x1 = 0.2203	–	–	–	–	2.62
x1 = 0.2903	–	0.61	1.14	1.6	2.42
x1 = 0.4076	–	0.05	0.54	0.98	1.82
x1 = 0.4641	–	–	0.35	0.78	1.58
x1 = 0.6066	–	–	0.02	0.035	0.96
x1 = 0.6959	–	–	–	0.15	0.63
x1 = 0.804	–	–	–	–	0.18

CCCCC(O)CO (configuration not stated) [1,2-hexanediol]
Details	mass density, 283.15 K [kg/m3]	mass density, 293.15 K [kg/m3]	mass density, 298.15 K [kg/m3]	mass density, 303.15 K [kg/m3]	mass density, 313.15 K [kg/m3]	molar heat capacity at constant pressure, 283.15 K [J/K/mol]	molar heat capacity at constant pressure, 293.15 K [J/K/mol]	molar heat capacity at constant pressure, 298.15 K [J/K/mol]	molar heat capacity at constant pressure, 303.15 K [J/K/mol]	molar heat capacity at constant pressure, 313.15 K [J/K/mol]
[1]	958.85	951.73	948.1	944.44	937.06	–	–	–	–	–
[2]	–	–	–	–	–	277.11	287.76	293.1	298.44	309.15

CCCCC(O)CO (configuration not stated) [1,2-hexanediol] + O
excess molar heat capacity [J/K/mol], [3]
Details	283.15 K	293.15 K	298.15 K	303.15 K	313.15 K
x1 = 0.04991	–	0.35	–	1.74	2.85
x1 = 0.09952	–	–	0.87	1.95	3.92
x1 = 0.1989	–	0.68	1.97	3.16	5.28
x1 = 0.2988	–	1.31	2.52	3.76	5.95
x1 = 0.4015	–	0.89	2.19	3.35	5.35
x1 = 0.4841	–	1.13	2.22	3.15	4.97
x1 = 0.5535	–	1.45	2.33	3.16	–
x1 = 0.6972	–	0.9	1.63	2.27	3.48
x1 = 0.7927	–	0.92	1.26	1.52	2.27
x1 = 0.8822	–	0.82	0.94	0.89	1.65
x1 = 0.9437	0.04	0.68	0.47	0.22	0.62

CC(O)CO (configuration not stated) [1,2-propanediol]
Details	mass density, 283.15 K [kg/m3]	mass density, 293.15 K [kg/m3]	mass density, 298.15 K [kg/m3]	mass density, 303.15 K [kg/m3]	mass density, 313.15 K [kg/m3]	molar heat capacity at constant pressure, 283.15 K [J/K/mol]	molar heat capacity at constant pressure, 293.15 K [J/K/mol]	molar heat capacity at constant pressure, 298.15 K [J/K/mol]	molar heat capacity at constant pressure, 303.15 K [J/K/mol]	molar heat capacity at constant pressure, 313.15 K [J/K/mol]
[1]	1043.89	1036.58	1032.86	1029.1	1021.48	–	–	–	–	–
[2]	–	–	–	–	–	183.26	188.62	191.29	193.95	199.25

OCCCCO [1,4-butanediol]
Details	mass density, 283.15 K [kg/m3]	mass density, 293.15 K [kg/m3]	mass density, 298.15 K [kg/m3]	mass density, 303.15 K [kg/m3]	mass density, 313.15 K [kg/m3]	molar heat capacity at constant pressure, 283.15 K [J/K/mol]	molar heat capacity at constant pressure, 293.15 K [J/K/mol]	molar heat capacity at constant pressure, 298.15 K [J/K/mol]	molar heat capacity at constant pressure, 303.15 K [J/K/mol]	molar heat capacity at constant pressure, 313.15 K [J/K/mol]
[1]	1022.21	1016.11	1013.06	1009.99	1003.85	–	–	–	–	–
[2]	–	–	–	–	–	195.51	200.85	203.73	206.71	212.96

OCCCO [propan-1,3-diol]
Details	mass density, 283.15 K [kg/m3]	mass density, 293.15 K [kg/m3]	mass density, 298.15 K [kg/m3]	mass density, 303.15 K [kg/m3]	mass density, 313.15 K [kg/m3]	molar heat capacity at constant pressure, 283.15 K [J/K/mol]	molar heat capacity at constant pressure, 293.15 K [J/K/mol]	molar heat capacity at constant pressure, 298.15 K [J/K/mol]	molar heat capacity at constant pressure, 303.15 K [J/K/mol]	molar heat capacity at constant pressure, 313.15 K [J/K/mol]
[1]	1059.14	1052.85	1049.68	1046.51	1040.12	–	–	–	–	–
[2]	–	–	–	–	–	169.44	174.37	176.91	179.52	185.09
